Experimental data: patent US6914045B2, “Glycopeptide antibiotics” (Wyeth Holdings Corporation, priority 2001, dated 2005)
Values after ≈ are worked out from the molar mass of the structure shown.

How the values were obtained:
Test in all cases: in vitro antibacterial evaluation, MIC by broth dilution
Assay type in all cases: cell-based
[1] = tested on: Escherichia coli; details: 18 hours at 35° C.
[2] = tested on: Streptococcus sp.; details: broth dilution, 18 hours at 35° C.
Method: (§1) Methods for in vitro Antibacterial Evaluation (Table 1)
(§2) The minimum inhibitory concentration (MIC), the lowest concentration of the antibiotic which inhibits growth of the test organism, is determined by the broth dilution method using Muller-Hinton II […] (Baltimore Biological Laboratories) following the recommendations of the National Committee for Clinical Laboratory Standards [Methods for dilution antimicrobial susceptibility tests for bacteria that grow aerobically, approved standard M7-A2, National Committee for Clinical Laboratory Standards, Villanova, Pa.].
(§3) An inoculum level of 5×10^5 CFU/mL, and a range of antibiotic concentrations (64-0.06 μg/mL) is used. […] The test organisms include a spectrum of Gram-positive bacteria comprised of Staphylococcus sp., Streptococcus sp. and Enterococcus sp. These organisms include recent clinical isolates that are resistant to methicillin, penicillin and/or vancomycin.

[3] = tested on: Enterococcus sp.; details: broth dilution, 18 hours at 35° C.
Method: as §1, §2, §3

[4] = tested on: Staphylococcus sp.; details: broth dilution, 18 hours at 35° C.; for MIC Staphylococcus aureus (ATCC 29213): strain ATCC 29213; for MIC Staphylococcus aureus (GC 1131): strain GC 1131; for MIC Staphylococcus aureus (GC 3051): strain GC 3051; for MIC Staphylococcus aureus (GC 3053): strain GC 3053; for MIC Staphylococcus aureus (GC 4541): strain GC 4541; for MIC Staphylococcus aureus (GC 4542): strain GC 4542; for MIC Staphylococcus aureus-SMITH (GC 4543): strain GC 4543; for MIC Staphylococcus aureus (GC 4544): strain GC 4544; for MIC Staphylococcus aureus (GC 4545): strain GC 4545; for MIC Staphylococcus haemolyticus (GC 4546): strain GC 4546; for MIC Coagulase Negative Staphylococcus (GC 4547): strain GC 4547; for MIC Coagulase Negative Staphylococcus (GC 4548): strain GC 4548; for MIC Coagulase Negative Staphylococcus (GC 4549): strain GC 4549; for MIC Coagulase Negative Staphylococcus (GC 4551): strain GC 4551
Method: as §1, §2, §3

## CC(C)=CCN1CC(C(O)C2NC(=O)C(C(O)C3CNC(=N)N3)NC(=O)C(Cc3ccc(OC4OC(CO)C(OC5OC6COC7(OC6C(O)C5O)C5CC6CC(C5)CC7C6)C(O)C4O)cc3)NC(=O)C(C(C)c3ccccc3)NC(=O)CNC(=O)C(CO)NC2=O)N(C2OC(CO)C(O)C(O)C2O)C1=N (stereo not shown) [Example 225]
[1]
  MIC Escherichia coli (ATCC 25922): 128 µg/mL (≈ 85.6 µM)
  MIC Escherichia coli (GC 4559): 128 µg/mL (≈ 85.6 µM)
  MIC Escherichia coli (GC 4560): 4 µg/mL (≈ 2.67 µM)
[2]
  MIC Streptococcus agalactiae (GC 4564): 0.5 µg/mL (≈ 0.334 µM)
  MIC Streptococcus pneumoniae (ATCC 6301): 0.5 µg/mL (≈ 0.334 µM)
  MIC Streptococcus pneumoniae (GC 1894): <0.12 µg/mL
  MIC Streptococcus pneumoniae (GC 4565): 1 µg/mL (≈ 0.669 µM)
  MIC Streptococcus pyogenes (GC 4563): 0.5 µg/mL (≈ 0.334 µM)
[2]; inoculum 5×10^5 CFU/mL, strain ATCC 6301
  MIC Streptococcus pneumoniae (ATCC 6301): 0.5 µg/mL (≈ 0.334 µM)
[2]; inoculum 5×10^5 CFU/mL, strain GC 1894
  MIC Streptococcus pneumoniae (GC 1894): <0.12 µg/mL
[2]; inoculum 5×10^5 CFU/mL, strain GC 4563
  MIC Streptococcus pyogenes (GC 4563): 0.5 µg/mL (≈ 0.334 µM)
[2]; inoculum 5×10^5 CFU/mL, strain GC 4564
  MIC Streptococcus agalactiae (GC 4564): 0.5 µg/mL (≈ 0.334 µM)
[2]; inoculum 5×10^5 CFU/mL, strain GC 4565
  MIC Streptococcus pneumoniae (GC 4565): 1 µg/mL (≈ 0.669 µM)
[3]
  MIC Enterococcus avium (GC 4558): 4 µg/mL (≈ 2.67 µM)
  MIC Enterococcus faecalis (ATCC 29212): 8 µg/mL (≈ 5.35 µM)
  MIC Enterococcus faecalis (GC 2242): 8 µg/mL (≈ 5.35 µM)
  MIC Enterococcus faecalis (GC 2691): 16 µg/mL (≈ 10.7 µM)
  MIC Enterococcus faecalis (GC 3059): 16 µg/mL (≈ 10.7 µM)
  MIC Enterococcus faecalis (GC 4552): 8 µg/mL (≈ 5.35 µM)
  MIC Enterococcus faecalis (GC 4553): 4 µg/mL (≈ 2.67 µM)
  MIC Enterococcus faecalis (GC 4554): 16 µg/mL (≈ 10.7 µM)
  MIC Enterococcus faecalis (GC 6189): 16 µg/mL (≈ 10.7 µM)
  MIC Enterococcus faecium (GC 2243): 4 µg/mL (≈ 2.67 µM)
  MIC Enterococcus faecium (GC 4556): 8 µg/mL (≈ 5.35 µM)
  MIC Enterococcus faecium (GC 4557): 1 µg/mL (≈ 0.669 µM)
[3]; inoculum 5×10^5 CFU/mL, strain ATCC 29212
  MIC Enterococcus faecalis (ATCC 29212): 8 µg/mL (≈ 5.35 µM)
[3]; inoculum 5×10^5 CFU/mL, strain GC 2242
  MIC Enterococcus faecalis (GC 2242): 8 µg/mL (≈ 5.35 µM)
[3]; inoculum 5×10^5 CFU/mL, strain GC 2243
  MIC Enterococcus faecium (GC 2243): 4 µg/mL (≈ 2.67 µM)
[3]; inoculum 5×10^5 CFU/mL, strain GC 2691
  MIC Enterococcus faecalis (GC 2691): 16 µg/mL (≈ 10.7 µM)
[3]; inoculum 5×10^5 CFU/mL, strain GC 3059
  MIC Enterococcus faecalis (GC 3059): 16 µg/mL (≈ 10.7 µM)
[3]; inoculum 5×10^5 CFU/mL, strain GC 4552
  MIC Enterococcus faecalis (GC 4552): 8 µg/mL (≈ 5.35 µM)
[3]; inoculum 5×10^5 CFU/mL, strain GC 4553
  MIC Enterococcus faecalis (GC 4553): 4 µg/mL (≈ 2.67 µM)
[3]; inoculum 5×10^5 CFU/mL, strain GC 4554
  MIC Enterococcus faecalis (GC 4554): 16 µg/mL (≈ 10.7 µM)
[3]; inoculum 5×10^5 CFU/mL, strain GC 4556
  MIC Enterococcus faecium (GC 4556): 8 µg/mL (≈ 5.35 µM)
[3]; inoculum 5×10^5 CFU/mL, strain GC 4557
  MIC Enterococcus faecium (GC 4557): 1 µg/mL (≈ 0.669 µM)
[3]; inoculum 5×10^5 CFU/mL, strain GC 4558
  MIC Enterococcus avium (GC 4558): 4 µg/mL (≈ 2.67 µM)
[3]; inoculum 5×10^5 CFU/mL, strain GC 6189
  MIC Enterococcus faecalis (GC 6189): 16 µg/mL (≈ 10.7 µM)
[4]
  MIC Staphylococcus aureus (ATCC 29213): 4 µg/mL (≈ 2.67 µM)
  MIC Staphylococcus aureus (GC 1131): 8 µg/mL (≈ 5.35 µM)
  MIC Staphylococcus aureus (GC 3051): 4 µg/mL (≈ 2.67 µM)
  MIC Staphylococcus aureus (GC 3053): 8 µg/mL (≈ 5.35 µM)
  MIC Staphylococcus aureus (GC 4541): 4 µg/mL (≈ 2.67 µM)
  MIC Staphylococcus aureus (GC 4542): 8 µg/mL (≈ 5.35 µM)
  MIC Staphylococcus aureus-SMITH (GC 4543): 4 µg/mL (≈ 2.67 µM)
  MIC Staphylococcus aureus (GC 4544): 8 µg/mL (≈ 5.35 µM)
  MIC Staphylococcus aureus (GC 4545): 4 µg/mL (≈ 2.67 µM)
  MIC Staphylococcus haemolyticus (GC 4546): 4 µg/mL (≈ 2.67 µM)
  MIC Coagulase Negative Staphylococcus (GC 4547): 4 µg/mL (≈ 2.67 µM)
  MIC Coagulase Negative Staphylococcus (GC 4548): 2 µg/mL (≈ 1.34 µM)
  MIC Coagulase Negative Staphylococcus (GC 4549): 2 µg/mL (≈ 1.34 µM)
  MIC Coagulase Negative Staphylococcus (GC 4551): 4 µg/mL (≈ 2.67 µM)

## CC(c1ccccc1)C1NC(=O)CNC(=O)C(CO)NC(=O)C(C(O)C2CNC(=N)N2C2OC(CO)C(O)C(O)C2O)NC(=O)C(C(O)C2CNC(=N)N2)NC(=O)C(Cc2ccc3oc(SCc4ccc5ccccc5c4)nc3c2)NC1=O (stereo not shown) [Example 46]
[1]; strain ATCC 25922, broth dilution
  MIC Escherichia coli (ATCC 25922): 64 µg/mL (≈ 54.8 µM)
[1]; strain GC 4559, broth dilution
  MIC Escherichia coli (GC 4559): 64 µg/mL (≈ 54.8 µM)
[1]; strain GC 4560, broth dilution
  MIC Escherichia coli (GC 4560): 16 µg/mL (≈ 13.7 µM)
[2]; strain ATCC 6301
  MIC Streptococcus pneumoniae (ATCC 6301): 8 µg/mL (≈ 6.85 µM)
[2]; strain GC 1894
  MIC Streptococcus pneumoniae (GC 1894): 8 µg/mL (≈ 6.85 µM)
[2]; strain GC 4563
  MIC Streptococcus pyogenes (GC 4563): 1 µg/mL (≈ 0.856 µM)
[2]; strain GC 4564
  MIC Streptococcus agalactiae (GC 4564): 8 µg/mL (≈ 6.85 µM)
[2]; strain GC 4565
  MIC Streptococcus pneumoniae (GC 4565): 8 µg/mL (≈ 6.85 µM)
[3]; strain ATCC 29212
  MIC Enterococcus faecalis (ATCC 29212): 8 µg/mL (≈ 6.85 µM)
[3]; strain GC 2242
  MIC Enterococcus faecalis (GC 2242): 8 µg/mL (≈ 6.85 µM)
[3]; strain GC 2243
  MIC Enterococcus faecium (GC 2243): 4 µg/mL (≈ 3.42 µM)
[3]; strain GC 2691
  MIC Enterococcus faecalis (GC 2691): 16 µg/mL (≈ 13.7 µM)
[3]; strain GC 3059
  MIC Enterococcus faecalis (GC 3059): 32 µg/mL (≈ 27.4 µM)
[3]; strain GC 4552
  MIC Enterococcus faecalis (GC 4552): 8 µg/mL (≈ 6.85 µM)
[3]; strain GC 4553
  MIC Enterococcus faecalis (GC 4553): 4 µg/mL (≈ 3.42 µM)
[3]; strain GC 4554
  MIC Enterococcus faecalis (GC 4554): 16 µg/mL (≈ 13.7 µM)
[3]; strain GC 4556
  MIC Enterococcus faecium (GC 4556): 16 µg/mL (≈ 13.7 µM)
[3]; strain GC 4557
  MIC Enterococcus faecium (GC 4557): 8 µg/mL (≈ 6.85 µM)
[3]; strain GC 4558
  MIC Enterococcus avium (GC 4558): 4 µg/mL (≈ 3.42 µM)
[3]; strain GC 6189
  MIC Enterococcus faecalis (GC 6189): 16 µg/mL (≈ 13.7 µM)
[4]
  MIC Staphylococcus aureus (ATCC 29213): 8 µg/mL (≈ 6.85 µM)
  MIC Staphylococcus aureus (GC 1131): 8 µg/mL (≈ 6.85 µM)
  MIC Staphylococcus aureus (GC 3051): 8 µg/mL (≈ 6.85 µM)
  MIC Staphylococcus aureus (GC 3053): 8 µg/mL (≈ 6.85 µM)
  MIC Staphylococcus aureus (GC 4541): 8 µg/mL (≈ 6.85 µM)
  MIC Staphylococcus aureus (GC 4542): 8 µg/mL (≈ 6.85 µM)
  MIC Staphylococcus aureus-SMITH (GC 4543): 4 µg/mL (≈ 3.42 µM)
  MIC Staphylococcus aureus (GC 4544): 8 µg/mL (≈ 6.85 µM)
  MIC Staphylococcus aureus (GC 4545): 8 µg/mL (≈ 6.85 µM)
  MIC Staphylococcus haemolyticus (GC 4546): 8 µg/mL (≈ 6.85 µM)
  MIC Coagulase Negative Staphylococcus (GC 4547): 4 µg/mL (≈ 3.42 µM)
  MIC Coagulase Negative Staphylococcus (GC 4548): 8 µg/mL (≈ 6.85 µM)
  MIC Coagulase Negative Staphylococcus (GC 4549): 2 µg/mL (≈ 1.71 µM)
  MIC Coagulase Negative Staphylococcus (GC 4551): 4 µg/mL (≈ 3.42 µM)
